Values after ≈ are worked out from the molar mass of the structure shown. “Also recorded” adds a separate entry of the source. Structures can show the parent of a compound that is named as a salt. Where two headings read alike, the source gives them in different places.
What was measured:
[1] = system: Proteus vulgaris TN 224; assay: Increasing effect on antimicrobial activity of ampicillin and cefotiam by C-19393S2, P. vulgaris TN 224; type: cell-based; conditions: read-out: Minimum Inhibitory Concentration
From the text: (§1) *Clinically isolated strains having the ability to produce betalactamase
(§2) Medium: Heart Infusion Agar (Eiken Chemical Co., Japan)

[2] = system: Klebsiella pneumoniae TN 1725; assay: Increasing effect on antimicrobial activity of ampicillin and cefotiam by C-19393S2, K. pneumoniae TN 1725; type: cell-based; conditions: read-out: Minimum Inhibitory Concentration
From the text: as §1, §2

[3] = system: Escherichia coli TN 659; assay: Increasing effect on antimicrobial activity of ampicillin and cefotiam by C-19393S2, E. coli TN 659; type: cell-based; conditions: read-out: Minimum Inhibitory Concentration
From the text: as §1, §2

[4] = Solubility; type: physicochemical
[5] = system: gram-positive and gram-negative bacteria; assay: Antimicrobial activity (in words); type: cell-based
[6] = Stability; type: physicochemical
[7] = system: various bacteria which exhibit resistance to penicillin derivatives and/or cephalosporin derivatives; assay: Sensitivity of resistant bacteria to penicillin and/or cephalosporin derivatives; type: cell-based; conditions: to penicillin derivatives and/or cephalosporin derivatives (ampicillin, cefotiam)
[8] = system: betalactamase; assay: Betalactamase inhibiting activity; type: biochemical
[9] = system: Pseudomonas aeruginosa IFO 3080; assay: Antimicrobial spectrum, MIC on bouillon agar, P. aeruginosa; type: cell-based; conditions: IFO3080, read-out: Minimum Inhibitory Concentration
From the text: (§3) The biological properties of C-19393S2 are described below. The antibiotic spectrum of C-19393S2 sodium salt against various microorganisms are shown below in Table 4.

[10] = system: Staphylococcus aureus 209P; assay: Antimicrobial spectrum, MIC on bouillon agar, S. aureus; type: cell-based; conditions: read-out: Minimum Inhibitory Concentration
From the text: as §3

[11] = system: Klebsiella pneumoniae IFO 3318; assay: Antimicrobial spectrum, MIC on bouillon agar, K. pneumoniae; type: cell-based; conditions: IFO3318, read-out: Minimum Inhibitory Concentration
From the text: as §3

[12] = system: Bacillus subtilis IFO 3513; assay: Antimicrobial spectrum, MIC on bouillon agar, B. subtilis; type: cell-based; conditions: IFO3513, read-out: Minimum Inhibitory Concentration
From the text: as §3

[13] = system: Bacillus cereus IFO 3460; assay: Antimicrobial spectrum, MIC on bouillon agar, B. cereus; type: cell-based; conditions: IFO3460, read-out: Minimum Inhibitory Concentration
From the text: as §3

[14] = system: Sarcina lutea IFO 3232; assay: Antimicrobial spectrum, MIC on bouillon agar, S. lutea; type: cell-based; conditions: Micrococcus luteus, IFO3232, read-out: Minimum Inhibitory Concentration
From the text: as §3

[15] = system: Proteus vulgaris IFO 3045; assay: Antimicrobial spectrum, MIC on bouillon agar, P. vulgaris; type: cell-based; conditions: IFO3045, read-out: Minimum Inhibitory Concentration
From the text: as §3

[16] = system: Alcaligenes faecalis IFO 13111; assay: Antimicrobial spectrum, MIC on bouillon agar, A. faecalis; type: cell-based; conditions: IFO13111, read-out: Minimum Inhibitory Concentration
From the text: as §3

[17] = system: Salmonella typhimurium IFO 12529; assay: Antimicrobial spectrum, MIC on bouillon agar, S. typhimurium; type: cell-based; conditions: Salmonella enterica, read-out: Minimum Inhibitory Concentration
From the text: as §3

[18] = system: Proteus mirabilis IFO 3845; assay: Antimicrobial spectrum, MIC on bouillon agar, P. mirabilis; type: cell-based; conditions: IFO3845, read-out: Minimum Inhibitory Concentration
From the text: as §3

[19] = system: Comamonas terrigena IFO 13299; assay: Antimicrobial spectrum, MIC on bouillon agar, C. terrigena; type: cell-based; conditions: IFO13299, read-out: Minimum Inhibitory Concentration
From the text: as §3

[20] = system: Escherichia coli NIHJ; assay: Antimicrobial spectrum, MIC on bouillon agar, E. coli NIHJ; type: cell-based; conditions: read-out: Minimum Inhibitory Concentration
From the text: as §3

[21] = system: Serratia marcescens IFO 12648; assay: Antimicrobial spectrum, MIC on bouillon agar, S. marcescens; type: cell-based; conditions: IFO12648, read-out: Minimum Inhibitory Concentration
From the text: as §3

[22] = Umezawa et al., The Journal of Antibiotics, Vol. 26, pages 51-54, 1973; cited from earlier work
[23] = TN224, Proteus vulgaris TN 224, C-19393S2 0, Heart Infusion Agar
[24] = TN224, Proteus vulgaris TN 224, with C-19393S2 1 μg/ml, Heart Infusion Agar
[25] = TN224, Proteus vulgaris TN 224, with C-19393S2 5 μg/ml, Heart Infusion Agar
[26] = TN1725, Klebsiella pneumoniae TN 1725, C-19393S2 0, Heart Infusion Agar
[27] = TN1725, Klebsiella pneumoniae TN 1725, with C-19393S2 1 μg/ml, Heart Infusion Agar
[28] = TN1725, Klebsiella pneumoniae TN 1725, with C-19393S2 5 μg/ml, Heart Infusion Agar
[29] = TN659, Escherichia coli TN 659, C-19393S2 0, Heart Infusion Agar
[30] = TN659, Escherichia coli TN 659, with C-19393S2 1 μg/ml, Heart Infusion Agar
[31] = TN659, Escherichia coli TN 659, with C-19393S2 5 μg/ml, Heart Infusion Agar
[32] = aqueous solution in a neutral pH region
[33] = comparison with MM-4550 (MC 696-SY2-A)

CC1(C)S[C@@H]2[C@H](NC(=O)[C@H](N)c3ccccc3)C(=O)N2[C@H]1C(=O)O [Ampicillin]
MIC [1, 23]: 400 µg/mL (≈ 1140 µM)
MIC [1, 24]: 1.56 µg/mL (≈ 4.46 µM)
MIC [1, 25]: 1.56 µg/mL (≈ 4.46 µM)
MIC [2, 26]: 800 µg/mL (≈ 2290 µM)
MIC [2, 27]: 50 µg/mL (≈ 143 µM)
MIC [2, 28]: 0.78 µg/mL (≈ 2.23 µM)
MIC [3, 29]: > 800 µg/mL
MIC [3, 30]: 3.13 µg/mL (≈ 8.96 µM)
MIC [3, 31]: ≤ 0.003 µg/mL

CC(=O)N/C=C/[S+]([O-])C1=C(C(=O)O)N2C(=O)C(C(C)(C)O)C2C1 (stereo not shown) [Antibiotic C-19393H2]
Solubility ([4]; water, listed as H2): water-soluble
antimicrobial activity [5]: exhibits antibacterial activity against gram-positive and gram-negative bacteria; also recorded: has antimicrobial activity against gram-positive and gram-negative bacteria
Stability [6, 32]: stable
Stability [6, 33]: stable

CC(=O)N/C=C/[S+]([O-])C1=C(C(=O)O)N2C(=O)C(C(C)(C)OS(=O)(=O)O)C2C1 (stereo not shown) [Antibiotic C-19393S2]
Solubility ([4]; water): water-soluble
increase of sensitivity of resistant bacteria [7]: increases markedly the sensitivity; also recorded: markedly increases the sensitivity
antimicrobial activity [5]: exhibits an antimicrobial activity against gram-positive and gram-negative bacteria
antimicrobial activity ([5]; listed as Antibiotic C-19393S2): active against gram-positive and gram-negative bacteria
Stability [6, 32]: stable
Stability [6, 33]: stable
betalactamase inhibiting activity [8]: strong betalactamase inhibiting activity; also recorded: exhibits a beta-lactamase inhibiting activity

CC(=O)N/C=C/[S+]([O-])C1=C(C(=O)O)N2C(=O)C(C(C)(C)O)C2C1 (stereo not shown) [C-19393H2 sodium salt]
Solubility ([4]; acetone): sparingly soluble
Solubility ([4]; butanol): sparingly soluble
Solubility ([4]; chloroform): Insoluble
Solubility ([4]; ethanol): sparingly soluble
Solubility ([4]; ethyl acetate): Insoluble
Solubility ([4]; methanol): soluble
Solubility ([4]; water): soluble
MIC [9]: 10 µg/mL
MIC [10]: 0.63 µg/mL
MIC [11]: 0.31 µg/mL
MIC [12]: 0.31 µg/mL
MIC [13]: 10 µg/mL
MIC [14]: 0.31 µg/mL
MIC [15]: 5 µg/mL
MIC [16]: 5 µg/mL
MIC [17]: 0.31 µg/mL
MIC [18]: 5 µg/mL
MIC [19]: 0.16 µg/mL
MIC [20]: 0.08 µg/mL
MIC [21]: 0.31 µg/mL

CC(=O)N/C=C/[S+]([O-])C1=C(C(=O)O)N2C(=O)C(C(C)(C)OS(=O)(=O)O)C2C1 (stereo not shown) [C-19393S2 disodium salt]
Solubility ([4]; acetic acid): soluble
Solubility ([4]; acetone): Insoluble
Solubility ([4]; butanol): sparingly soluble
Solubility ([4]; chloroform): Insoluble
Solubility ([4]; dimethyl sulfoxide): soluble
Solubility ([4]; ethanol): sparingly soluble
Solubility ([4]; ethyl acetate): Insoluble
Solubility ([4]; methanol): soluble
Solubility ([4]; pyridine): sparingly soluble
Solubility ([4]; water): readily soluble
MIC [9]: > 100 µg/mL
MIC [10]: 12.5 µg/mL
MIC [11]: 12.5 µg/mL
MIC [12]: 12.5 µg/mL
MIC [13]: > 100 µg/mL
MIC [14]: 12.5 µg/mL
MIC [15]: 100 µg/mL
MIC [16]: 50 µg/mL
MIC [17]: 12.5 µg/mL
MIC [18]: 50 µg/mL
MIC [19]: 6.25 µg/mL
MIC [20]: 12.5 to 25 µg/mL
MIC [21]: 25 µg/mL

CN(C)CCn1nnnc1SCC1=C(C(=O)O)N2C(=O)[C@@H](NC(=O)Cc3csc(N)n3)[C@H]2SC1 [Cefotiam]
MIC [1, 23]: 200 µg/mL (≈ 380 µM)
MIC [1, 24]: 0.2 µg/mL (≈ 0.38 µM)
MIC [1, 25]: 0.2 µg/mL (≈ 0.38 µM)
MIC [2, 26]: 200 µg/mL (≈ 380 µM)
MIC [2, 27]: 0.2 µg/mL (≈ 0.38 µM)
MIC [2, 28]: 0.02 µg/mL (≈ 0.038 µM)
MIC [3, 29]: 0.2 µg/mL (≈ 0.38 µM)
MIC [3, 30]: 0.1 µg/mL (≈ 0.19 µM)
MIC [3, 31]: 0.006 µg/mL (≈ 0.0114 µM)

CC(=O)N/C=C/[S+]([O-])C1=C(C(=O)O)N2C(=O)C(C(C)OS(=O)(=O)O)C2C1 (stereo not shown) [MC 696-SY2-A]
Stability [22]: very unstable
